# Source: PubChem BioAssay AID1919010 (Molecular Pharmacology Branch, DTP, NCI, 2023)
# System: Hs578T complex spheroid growth, percent test/control
# Experiment: Anticancer human tumor Hs578T cell line growth inhibition [AhR];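 note: luminescent viability signal as a proxy for spheroid growth; spheroids exposed to agents for one week after three days of growth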
# Conditions: for IC50: curve of first compound; for viability, T/C: stronger effect = lower value
# Method in brief: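 Complex tumor spheroids co-cultured with HUVEC and human MSC stroma; AhR antagonists tested in combination with standard-of-care and investigational agents. Top concentration at or near clinical Cmax (else 10 microM), half-log dilutions; growth expressed as percent test/control.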
# [1] = second compound 0.1 µM, first compound 0.00316 µM
# [2] = second compound 0.1 µM, first compound 0.01 µM
# [3] = second compound 0.1 µM, first compound 0.0316 µM
# [4] = second compound 0.1 µM, first compound 0.1 µM
# [5] = second compound 0.316 µM, first compound 0.00316 µM
# [6] = second compound 0.316 µM, first compound 0.01 µM
# [7] = second compound 0.316 µM, first compound 0.0316 µM
# [8] = second compound 0.316 µM, first compound 0.1 µM
# [9] = second compound 1 µM, first compound 0.00316 µM
# [10] = second compound 1 µM, first compound 0.01 µM
# [11] = second compound 1 µM, first compound 0.0316 µM
# [12] = second compound 1 µM, first compound 0.1 µM
# [13] = second compound 3.16 µM, first compound 0.00316 µM
# [14] = second compound 3.16 µM, first compound 0.01 µM
# [15] = second compound 3.16 µM, first compound 0.0316 µM
# [16] = second compound 3.16 µM, first compound 0.1 µM
# [17] = second compound 10 µM, first compound 0.00316 µM
# [18] = second compound 10 µM, first compound 0.01 µM
# [19] = second compound 10 µM, first compound 0.0316 µM
# [20] = second compound 10 µM, first compound 0.1 µM
structure (smiles),measurement,setting,value
Nc1ncn(C2CC(O)C(CO)O2)c(=O)n1 (stereo not given) + Cc1cncc(-c2nc(NCCc3c[nH]c4ccccc34)c3ncn(C(C)C)c3n2)c1,IC50,second compound 0.1 µM,> 1000 nM
same,IC50,second compound 0.316 µM,> 1000 nM
same,IC50,second compound 1 µM,> 1000 nM
same,IC50,second compound 3.16 µM,> 1000 nM
same,IC50,second compound 10 µM,< 3.16 nM
same,"viability, T/C",[1],105%
same,"viability, T/C",[2],114%
same,"viability, T/C",[3],111%
same,"viability, T/C",[4],112%
same,"viability, T/C","second compound 0.1 µM, first compound 0.316 µM",108%
same,"viability, T/C","second compound 0.1 µM, first compound 1 µM",106%
same,"viability, T/C",[5],116%
same,"viability, T/C",[6],110%
same,"viability, T/C",[7],119%
same,"viability, T/C",[8],111%
same,"viability, T/C","second compound 0.316 µM, first compound 0.316 µM",106%
same,"viability, T/C","second compound 0.316 µM, first compound 1 µM",102%
same,"viability, T/C",[9],109%
same,"viability, T/C",[10],105%
same,"viability, T/C",[11],112%
same,"viability, T/C",[12],108%
same,"viability, T/C","second compound 1 µM, first compound 0.316 µM",112%
same,"viability, T/C","second compound 1 µM, first compound 1 µM",108%
same,"viability, T/C",[13],73.1%
same,"viability, T/C",[14],76.2%
same,"viability, T/C",[15],82.6%
same,"viability, T/C",[16],74.4%
same,"viability, T/C","second compound 3.16 µM, first compound 0.316 µM",77.4%
same,"viability, T/C","second compound 3.16 µM, first compound 1 µM",75.7%
same,"viability, T/C",[17],6.02%
same,"viability, T/C",[18],6.62%
same,"viability, T/C",[19],6.65%
same,"viability, T/C",[20],6.53%
same,"viability, T/C","second compound 10 µM, first compound 0.316 µM",6.26%
same,"viability, T/C","second compound 10 µM, first compound 1 µM",6.45%
Cn1ncnc1C1c2n[nH]c(=O)c3cc(F)cc(c23)NC1c1ccc(F)cc1 (stereo not given) + Cc1cncc(-c2nc(NCCc3c[nH]c4ccccc34)c3ncn(C(C)C)c3n2)c1,IC50,second compound 0.1 µM,> 100 nM
same,IC50,second compound 0.316 µM,> 100 nM
same,IC50,second compound 1 µM,> 100 nM
same,IC50,second compound 3.16 µM,> 100 nM
same,IC50,second compound 10 µM,< 0.316 nM
same,"viability, T/C","second compound 0.1 µM, first compound 0.000316 µM",103%
same,"viability, T/C","second compound 0.1 µM, first compound 0.001 µM",104%
same,"viability, T/C",[1],112%
same,"viability, T/C",[2],99%
same,"viability, T/C",[3],111%
same,"viability, T/C",[4],108%
same,"viability, T/C","second compound 0.316 µM, first compound 0.000316 µM",107%
same,"viability, T/C","second compound 0.316 µM, first compound 0.001 µM",115%
same,"viability, T/C",[5],116%
same,"viability, T/C",[6],106%
same,"viability, T/C",[7],97.4%
same,"viability, T/C",[8],108%
same,"viability, T/C","second compound 1 µM, first compound 0.000316 µM",101%
same,"viability, T/C","second compound 1 µM, first compound 0.001 µM",105%
same,"viability, T/C",[9],98%
same,"viability, T/C",[10],98.5%
same,"viability, T/C",[11],97%
same,"viability, T/C",[12],97.6%
same,"viability, T/C","second compound 3.16 µM, first compound 0.000316 µM",67.8%
same,"viability, T/C","second compound 3.16 µM, first compound 0.001 µM",73.3%
same,"viability, T/C",[13],72.4%
same,"viability, T/C",[14],69%
same,"viability, T/C",[15],70.5%
same,"viability, T/C",[16],64.1%
same,"viability, T/C","second compound 10 µM, first compound 0.000316 µM",8.48%
same,"viability, T/C","second compound 10 µM, first compound 0.001 µM",9.41%
same,"viability, T/C",[17],9.77%
same,"viability, T/C",[18],7.44%
same,"viability, T/C",[19],9.58%
same,"viability, T/C",[20],9.69%
Nc1ncn(C2CC(O)C(CO)S2)c(=O)n1 (stereo not given) + Cc1ccccc1N=Nc1ccc(NC(=O)c2ccnn2C)c(C)c1,IC50,second compound 0.1 µM,> 300 nM
same,IC50,second compound 0.316 µM,> 300 nM
same,IC50,second compound 1 µM,> 300 nM
same,IC50,second compound 3.16 µM,> 300 nM
same,IC50,second compound 10 µM,> 300 nM
same,"viability, T/C","second compound 0.1 µM, first compound 0.000949 µM",103%
same,"viability, T/C","second compound 0.1 µM, first compound 0.003 µM",109%
same,"viability, T/C","second compound 0.1 µM, first compound 0.00949 µM",102%
same,"viability, T/C","second compound 0.1 µM, first compound 0.03 µM",99.8%
same,"viability, T/C","second compound 0.1 µM, first compound 0.0949 µM",98.1%
same,"viability, T/C","second compound 0.1 µM, first compound 0.3 µM",85%
same,"viability, T/C","second compound 0.316 µM, first compound 0.000949 µM",117%
same,"viability, T/C","second compound 0.316 µM, first compound 0.003 µM",101%
same,"viability, T/C","second compound 0.316 µM, first compound 0.00949 µM",103%
same,"viability, T/C","second compound 0.316 µM, first compound 0.03 µM",102%
same,"viability, T/C","second compound 0.316 µM, first compound 0.0949 µM",94.3%
same,"viability, T/C","second compound 0.316 µM, first compound 0.3 µM",96.5%
same,"viability, T/C","second compound 1 µM, first compound 0.000949 µM",106%
same,"viability, T/C","second compound 1 µM, first compound 0.003 µM",112%
same,"viability, T/C","second compound 1 µM, first compound 0.00949 µM",106%
same,"viability, T/C","second compound 1 µM, first compound 0.03 µM",90.5%
same,"viability, T/C","second compound 1 µM, first compound 0.0949 µM",94.8%
same,"viability, T/C","second compound 1 µM, first compound 0.3 µM",84%
same,"viability, T/C","second compound 3.16 µM, first compound 0.000949 µM",83%
same,"viability, T/C","second compound 3.16 µM, first compound 0.003 µM",98.8%
same,"viability, T/C","second compound 3.16 µM, first compound 0.00949 µM",94.7%
same,"viability, T/C","second compound 3.16 µM, first compound 0.03 µM",83.9%
same,"viability, T/C","second compound 3.16 µM, first compound 0.0949 µM",90.7%
same,"viability, T/C","second compound 3.16 µM, first compound 0.3 µM",87.2%
same,"viability, T/C","second compound 10 µM, first compound 0.000949 µM",65.3%
same,"viability, T/C","second compound 10 µM, first compound 0.003 µM",67%
same,"viability, T/C","second compound 10 µM, first compound 0.00949 µM",68%
same,"viability, T/C","second compound 10 µM, first compound 0.03 µM",64%
same,"viability, T/C","second compound 10 µM, first compound 0.0949 µM",69.1%
same,"viability, T/C","second compound 10 µM, first compound 0.3 µM",66.6%
